20 molecules from patent US10231956B2, “3-(1H-pyrrolo[3,2-C]pyridin-2-YL)-1 H-pyrazolo[4,3-B]pyridines and therapeutic uses thereof” (Samumed, LLC, priority 2015, dated 2019) can be followed below.

Common to all, as to type: cell-based
The subject of one test is SW480 colon cancer cells. Nature of the test: Cell viability assay (CellTiter-Blue) in SW480 colon cancer cells. The note with it: Homo sapiens; for pEC50: 96 h, four days, CellTiter-Blue; for inhibition at 10 µM: given for EC50 >10 μM, read-out: percent inhibition at 10 μM. In outline:
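4-day exposure, 37 °C/5% CO2; ~2×10^3 SW480 cells/well; 8-pt 1:3 curve, 10–0.0045 μM, duplicates vs DMSO controls. Resazurin→resorufin fluorescence readout, ~3 h. EC50 by nonlinear fit; if >10 μM, % inhibition at 10 μM reported.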
A general note: Resazurin is reduced to fluorescent resorufin, in cell work by metabolically active cells.

The test system of test [1] is primary human fibroblasts derived from IPF patients (LL29 cells). Nature of the test: Inhibition of fibrotic process: αSMA staining in TGF-β1 treated LL29 fibroblasts. The note with it: Fibroblast; for pEC50: 96 h, TGF-β1 20 ng/mL, 4 days, % cells positive for αSMA; for inhibition at 10 µM: given for EC50 >10 μM, TGF-β1, αSMA, read-out: percent inhibition at 10 μM. In outline: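 LL29 cells at 1,500/well in F12 with 1% FBS, compounds at 1 μM–1.87 nM (11-point, 0.1% DMSO), TGF-β1 20 ng/mL added 1 h later, 4 days at 37 °C. SYTOX-positive cells excluded; % αSMA-positive cells by immunofluorescence imaging, normalized to TGF-β1/DMSO wells, triplicates fitted for EC50; above 10 μM, % inhibition at 10 μM given.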

The subject of test [2] is Wnt activity (Sp5-Luc reporter, SW480 colon carcinoma cells). Nature of the test: Sp5-Luc reporter gene screening assay for Wnt activity in SW480 cells. To be noted: Homo sapiens; for pEC50: luminescence, overnight incubation; for inhibition at 10 µM: given for EC50 >10 μM, read-out: percent inhibition at 10 μM. In outline: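 First, hygromycin-selected SW480 Sp5-Luc reporter cells are seeded in medium with 1% fetal bovine serum and exposed overnight to compound (up to 10 μM, 0.1% DMSO). Next, luciferase signal is read by luminescence. Finally, EC50 is fitted, or percent inhibition at 10 μM is reported above 10 μM.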
(A reporter such as luciferase makes a cellular process visible.)

pEC50: −log10 of the molar value.

As usually defined, the pEC50 is the negative decadic logarithm of the EC50, by convention in mol/L. High values mean a low EC50, low ones a high EC50. Broadly, the inhibition is how much of the control response was suppressed. Take `CCNCc1cncc(-c2ccc3[nH]nc(-c4cc5cnccc5[nH]4)c3n2)c1` [Compound 258, N-((5-(3-(1H-Pyrrolo[3,2-c]pyridin-2-yl)-1H-pyrazolo[4,3-b]pyridin-5-yl)pyridin-3-yl)methyl)ethanamine]: the results for the pEC50 (with SW480 colon cancer cells; in test [1]; in test [2]) were 5.78, less than 5.00 and 5.46, respectively. Moreover, the inhibition at 10 µM in test [1] was determined as 22.6%.

For the molecule `O=C(Nc1cncc(-c2ccc3[nH]nc(-c4cc5c(-c6ccc(F)cc6)nccc5[nH]4)c3n2)c1)c1ccccc1` [Compound 39, N-(5-(3-(4-(4-Fluorophenyl)-1H-pyrrolo[3,2-c]pyridin-2-yl)-1H-pyrazolo [4,3-b]pyridin-5-yl)pyridin-3-yl)benzamide], the pEC50 with SW480 colon cancer cells was 6.75; in test [1] it was 6.52; in test [2], 6.16.

In the case of `CS(=O)(=O)NCc1cc(F)cc(-c2nccc3[nH]c(-c4n[nH]c5ccc(-c6cncc(NC(=O)Cc7ccccc7)c6)nc45)cc23)c1` [Compound 486, N-(5-(3-(4-(3-Fluoro-5-(methylsulfonamidomethyl)phenyl)-1H-pyrrolo[3,2-c]pyridin-2-yl)-1H-pyrazolo[4,3-b]pyridin-5-yl)pyridin-3-yl)-2-phenylacetamide], the negative-log EC50 (pEC50) (with SW480 colon cancer cells; in test [1]; in test [2]) was less than 5.00 throughout. Also, the inhibition at 10 µM was 8.8% in the test with SW480 colon cancer cells, 37.1% in test [1] and 19.3% in test [2].

`CN1CCN(c2nccc3[nH]c(-c4n[nH]c5ccc(-c6cncc(NC(=O)c7ccccc7)c6)nc45)cc23)CC1` [Compound 235, N-(5-(3-(4-(4-Methylpiperazin-1l-yl)-1H-pyrrolo[3,2-c]pyridin-2-yl)-1H-pyrazolo[4,3-b]pyridin-5-yl)pyridin-3-yl)benzamide]: the pEC50 in the test on SW480 colon cancer cells was less than 5.00; in test [1] it was 5.65; in test [2], less than 5.00. The inhibition at 10 µM with SW480 colon cancer cells was 29.1%; in test [2], 49.1%.

`c1ccc(-c2ccc3[nH]nc(-c4cc5c(N6CCCCC6)nccc5[nH]4)c3n2)nc1` [Compound 196, 3-(4-(Piperidin-1-yl)-1H-pyrrolo[3,2-c]pyridin-2-yl)-5-(pyridin-2-yl)-1H-pyrazolo[4,3-b]pyridine]: the negative-log EC50 (pEC50) in the test on SW480 colon cancer cells is 5.55; in test [1], 6.57; in test [2], 5.47.

On to `Cc1ncc(-c2ccc3[nH]nc(-c4cc5c(-c6ccncc6)nccc5[nH]4)c3n2)n1C` [Compound 573, 5-(1,2-Dimethyl-1H-imidazol-5-yl)-3-(4-(pyridin-4-yl)-1H-pyrrolo[3,2-c]pyridin-2-yl)-1H-pyrazolo[4,3-b]pyridine], for which the pEC50 in the test with SW480 colon cancer cells is less than 5.00; in test [1], 7.14; in test [2], 7.00. Also, the inhibition at 10 µM in the test on SW480 colon cancer cells amounted to 25.6%.

In the case of `CS(=O)(=O)NCc1cc(F)cc(-c2nccc3[nH]c(-c4n[nH]c5ccc(-c6ccccn6)nc45)cc23)c1` [Compound 504, N-(3-Fluoro-5-(2-(5-(pyridin-2-yl)-1H-pyrazolo[4,3-b]pyridin-3-yl)-1H-pyrrolo[3,2-c]pyridin-4-yl)benzyl)methanesulfonamide], the values for the negative-log EC50 (pEC50) (in the test on SW480 colon cancer cells; in test [1]; in test [2]) were less than 5.00, 5.71 and 5.67, respectively. Also, the inhibition at 10 µM in the test on SW480 colon cancer cells is 44.7%.

As to `Nc1cncc(-c2ccc3[nH]nc(-c4cc5c(-c6ccncc6)nccc5[nH]4)c3n2)c1` [Compound 115, 5-(3-(4-(Pyridin-4-yl)-1H-pyrrolo[3,2-c]pyridin-2-yl)-1H-pyrazolo[4,3-b]pyridin-5-yl)pyridin-3-amine], the pEC50 with SW480 colon cancer cells is less than 5.00; in test [1], 6.36; in test [2], 6.34. The inhibition at 10 µM in the test with SW480 colon cancer cells turned out to be 5.4%.

`CN1CCN(c2nccc3[nH]c(-c4n[nH]c5ccc(-c6cncnc6)nc45)cc23)CC1` [Compound 251, 3-(4-(4-Methylpiperazin-1l-yl)-1H-pyrrolo[3,2-c]pyridin-2-yl)-5-(pyrimidin-5-yl)-1H-pyrazolo[4,3-b]pyridine]: the results for the pEC50 (in the test on SW480 colon cancer cells; in test [1]; in test [2]) were 5.95, 5.86 and 5.51, respectively.

For the molecule `CN(C)Cc1cncc(-c2ccc3[nH]nc(-c4cc5c(-c6ccccc6F)nccc5[nH]4)c3n2)c1` [Compound 69, 1-(5-(3-(4-(2-Fluorophenyl)-1H-pyrrolo[3,2-c]pyridin-2-yl)-1H-pyrazolo [4,3-b]pyridin-5-yl)pyridin-3-yl)-N,N-dimethylmethanamine], the figures for the pEC50 (with SW480 colon cancer cells; in test [1]; in test [2]) were 6.22, 6.20 and 5.92, respectively.

For the molecule `CS(=O)(=O)NCc1cc(F)cc(-c2nccc3[nH]c(-c4n[nH]c5ccc(-c6cncc(CN7CCC(F)(F)C7)c6)nc45)cc23)c1` [Compound 502, N-(3-(2-(5-(5-((3,3-Difluoropyrrolidin-1-yl)methyl)pyridin-3-yl)-1H-pyrazolo[4,3-b]pyridin-3-yl)-1H-pyrrolo[3,2-c]pyridin-4-yl)-5-fluorobenzyl) methanesulfonamide], the results for the negative-log EC50 (pEC50) (in the test on SW480 colon cancer cells; in test [1]; in test [2]) were 6.09, 6.66 and 6.30, respectively.

Turning to `CC(C)CC(=O)Nc1cncc(-c2ccc3[nH]nc(-c4cc5c(N6CCN(C)CC6)nccc5[nH]4)c3n2)c1` [Compound 226, 3-Methyl-N-(5-(3-(4-(4-methylpiperazin-1-yl)-1H-pyrrolo[3,2-c]pyridin-2-yl)-1H-pyrazolo[4,3-b]pyridin-5-yl)pyridin-3-yl)butanamide], the pEC50 is less than 5.00 in the test with SW480 colon cancer cells, 6.49 in test [1] and 5.40 in test [2]. Besides, the inhibition at 10 µM with SW480 colon cancer cells came to 37.8%.

Consider `Fc1ccccc1-c1nccc2[nH]c(-c3n[nH]c4ccc(-c5cn[nH]c5)nc34)cc12` [Compound 539, 3-(4-(2-Fluorophenyl)-1H-pyrrolo[3,2-c]pyridin-2-yl)-5-(1H-pyrazol-4-yl)-1H-pyrazolo[4,3-b]pyridine], for which the values for the pEC50 (with SW480 colon cancer cells; in test [1]; in test [2]) were 5.90, 7.48 and 6.23, respectively.

Take `c1csc(-c2nccc3[nH]c(-c4n[nH]c5ccc(-c6ccncc6)nc45)cc23)c1` [Compound 354, 5-(Pyridin-4-yl)-3-(4-(thiophen-2-yl)-1H-pyrrolo[3,2-c]pyridin-2-yl)-1H-pyrazolo[4,3-b]pyridine]: the results for the negative-log EC50 (pEC50) (in the test with SW480 colon cancer cells; in test [1]; in test [2]) were 5.55, 5.57 and less than 5.00, respectively. The inhibition at 10 µM in test [2] amounted to 33.6%.

As for `c1cc2[nH]c(-c3n[nH]c4ccc(-c5cncc(OC6CCCCC6)c5)nc34)cc2c(N2CCCCC2)n1` [Compound 607, 5-(5-(Cyclohexyloxy)pyridin-3-yl)-3-(4-(piperidin-1-yl)-1H-pyrrolo[3,2-c]pyridin-2-yl)-1H-pyrazolo[4,3-b]pyridine], the results for the pEC50 (in the test on SW480 colon cancer cells; in test [1]; in test [2]) were 6.52, less than 5.00 and 5.58, respectively. Further, the inhibition at 10 µM in test [1] came to 25.4%.

Regarding `Fc1cccc(-c2nccc3[nH]c(-c4n[nH]c5ccc(-c6cncc(CN7CCCCC7)c6)nc45)cc23)c1` [Compound 15, 3-(4-(3-Fluorophenyl)-1H-pyrrolo[3,2-c]pyridin-2-yl)-5-(5-(piperidin-1-ylmethyl)pyridin-3-yl)-1H-pyrazolo[4,3-b]pyridine], the pEC50 in the test with SW480 colon cancer cells was 5.94; in test [1] it was 6.26; in test [2] it was 5.43.

For `Fc1ccccc1-c1nccc2[nH]c(-c3n[nH]c4ccc(-c5cncc(CNCc6ccccc6)c5)nc34)cc12` [Compound 80, N-Benzyl-1-(5-(3-(4-(2-fluorophenyl)-1H-pyrrolo[3,2-c]pyridin-2-yl)-1H-pyrazolo[4,3-b]pyridin-5-yl)pyridin-3-yl)methanamine], the negative logarithm of the EC50 (pEC50) is 5.67 with SW480 colon cancer cells, 5.78 in test [1] and 5.42 in test [2].

For `CS(=O)(=O)NCc1cc(F)cc(-c2nccc3[nH]c(-c4n[nH]c5ccc(-c6cncnc6)nc45)cc23)c1` [Compound 503, N-(3-Fluoro-5-(2-(5-(pyrimidin-5-yl)-1H-pyrazolo[4,3-b]pyridin-3-yl)-1H-pyrrolo [3,2-c]pyridin-4-yl)benzyl)methanesulfonamide], the pEC50 in the test with SW480 colon cancer cells is less than 5.00; in test [1], less than 5.00; in test [2] it was 6.13. The inhibition at 10 µM was determined as 15.3% in the test with SW480 colon cancer cells and 0% in test [1].

On to `CN(C)c1cncc(-c2ccc3[nH]nc(-c4cc5c(-c6cccc(F)c6)nccc5[nH]4)c3n2)c1` [Compound 7, 5-(3-(4-(3-Fluorophenyl)-1H-pyrrolo[3,2-c]pyridin-2-yl)-1H-pyrazolo[4,3-b]pyridin-5-yl)-N,N-dimethylpyridin-3-amine], for which the figures for the pEC50 (in the test on SW480 colon cancer cells; in test [1]; in test [2]) were 6.32, less than 5.00 and 6.13, respectively. Also, in test [1], the inhibition at 10 µM was determined as 0%.

In the case of `Fc1ccccc1-c1nccc2[nH]c(-c3n[nH]c4ccc(-c5cncnc5)nc34)cc12` [Compound 83, 3-(4-(2-Fluorophenyl)-1H-pyrrolo[3,2-c]pyridin-2-yl)-5-(pyrimidin-5-yl)-1H-pyrazolo[4,3-b]pyridine], the pEC50 (in the test on SW480 colon cancer cells; in test [1]; in test [2]) was less than 5.00 in each case. In addition, the figures for the inhibition at 10 µM (in the test on SW480 colon cancer cells; in test [1]; in test [2]) were 27.9%, 0% and 2.1%, respectively.
